Counter-ions that a name gives are not always drawn.
Experiments:
[1] = tested on: Staphylococcus aureus MW2 delta-mecA (mecA-); assay: IC50 (growth, competition assay); conditions: cefoxitin: subinhibitory
Procedure, shortened: (§1)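 Pre-induced, 1:1-mixed fluorescent S. aureus MW2 mecA+ and ΔmecA strains were grown 20 h at 37 °C, 90% humidity, unshaken, in LB with a daily-set subinhibitory cefoxitin dose, in 1536-well plates. Compounds were given on five- or nine-point 2-fold gradients, in two dye-swapped replicates. DsRed (540/590) and GFP (485/520) were scaled per plate between single-strain control medians, with No Treatment then set to 0.5. Per-strain IC50 was the dose halving the No Treatment signal, or the maximal signal.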

[2] = tested on: Staphylococcus aureus MW2 (mecA+); assay: IC50 (growth, competition assay); conditions: cefoxitin: subinhibitory
Procedure, shortened: as §1

| SMILES | IC50 ([1]; fluorescent label: DsRed) | IC50 ([1]; fluorescent label: GFP) | IC50 ([2]; fluorescent label: DsRed) | IC50 ([2]; fluorescent label: GFP) |
| --- | --- | --- | --- | --- |
| COC(=O)C1=C(C)NC(C)=C(C(=O)OC)C1c1cccc(NC(=O)NCCCN2CCC(c3cccc(OC)c3)CC2)c1 | 18.2 µM | 13.4 µM | 45.5 µM | 54.8 µM |
| CN(CC(=O)N(Cc1ccc(C2CCCCC2)cc1)c1ccc(C(=O)O)cc1)S(=O)(=O)c1c(F)c(F)c(F)c(F)c1F [SH-4-54] | < 9.85 µM | < 9.85 µM | < 9.85 µM | 11.5 µM |
| Cc1cc(O)c(C(=O)N[C@@H](C(=O)N[C@@H]2C(=O)N3C(C(=O)O)=C(CSc4nnnn4C)CS[C@H]23)c2ccc(O)cc2)cn1 [CEFPIRAN] | < 9.85 µM | < 9.85 µM | < 9.85 µM | < 9.85 µM |
| FC(F)(F)c1ccc(Nc2nc3ccc(Oc4ccnc(-c5ncc(C(F)(F)F)[nH]5)c4)cc3[nH]2)cc1 [Raf265 derivative] | < 9.85 µM | < 9.85 µM | 19.6 µM | 23.4 µM |
| CCCc1c(-c2ccc(O)cc2)nn(-c2ccc(O)cc2)c1-c1ccc(O)cc1 [1,3,5-tris(4-hydroxyphenyl)-4-propyl-1H-pyrazole] | < 9.85 µM | < 9.85 µM | 12.5 µM | 20.3 µM |
| CCCCCCCc1ccc(CCc2cccc(O)c2C(=O)O)cc1 [MG 149] | < 9.85 µM | < 9.85 µM | 13.6 µM | 14.5 µM |
| CCN(CC)C(=S)SSC(=S)N(CC)CC [ANTABUSE] | 12.3 µM | 11.1 µM | 31.7 µM | 33.4 µM |
| CC(C)c1cc2c(c(O)c1O)[C@@]1(C(=O)O)CCCC(C)(C)[C@@H]1CC2 [CARNOSIC ACID] | < 9.85 µM | < 9.85 µM | 27.2 µM | 38.8 µM |
| CO/N=C(\C(=O)N[C@@H]1C(=O)N2C(C(=O)OCOC(=O)C(C)(C)C)=C(/C=C\c3scnc3C)CS[C@H]12)c1csc(N)n1 [SPECTRACEF] | < 9.85 µM | < 9.85 µM | 32.9 µM | 18.7 µM |
| O=C(/C=C/c1ccccc1)c1ccc(O)cc1O [2',4'-DIHYDROXYCHALCONE] | 18.7 µM | 17.1 µM | 91.7 µM | 111 µM |
| COC1=CC(=O)C(O)=C/C1=C\C=C\c1ccccc1 [OBTUSAQUINONE] | < 9.85 µM | < 9.85 µM | < 9.85 µM | < 9.85 µM |
| CC1CC(OC(=O)C(O)c2ccccc2)CC(C)(C)C1 (stereo unspecified) [CYCLOSPASMOL] | 15.1 µM | 13.8 µM | 45.1 µM | 83.4 µM |
| CN(C)c1ccc(C(=C2C=CC(=[N+](C)C)C=C2)c2ccc(N(C)C)cc2)cc1 [Crystal violet] | < 0.498 µM | < 0.498 µM | 0.691 µM | 0.758 µM |
| CCN1CCN(C(=O)N[C@@H](C(=O)N[C@@H]2C(=O)N3[C@@H]2SC(C)(C)[C@@H]3C(=O)O)c2ccccc2)C(=O)C1=O [PIPRACIL] | < 9.85 µM | < 9.85 µM | 26.8 µM | 25.2 µM |
| [O-][n+]1ccccc1[S-].[O-][n+]1ccccc1[S-].[Zn+2] [ZINC OMADINE] | < 9.85 µM | < 9.85 µM | < 9.85 µM | < 9.85 µM |
| COc1ccc(COc2ccc(Cc3cnc(N)nc3N)cc2OC)cc1 [GW2580] | < 9.85 µM | < 9.85 µM | 15.1 µM | 16.2 µM |
| CC(C)(C)c1cc(/C=C(\C#N)C(N)=S)cc(C(C)(C)C)c1O [Tyrphostin AG 879 (AG 879)] | < 9.85 µM | < 9.85 µM | < 9.85 µM | 14 µM |
| CCOC(=O)[C@H](CCc1ccccc1)N[C@@H](C)C(=O)N1Cc2ccccc2C[C@H]1C(=O)O [ACCUPRIL] | > 150 µM | > 150 µM | > 150 µM | > 150 µM |
| OCCN1CCN(CC/C=C2/c3ccccc3Sc3ccc(C(F)(F)F)cc32)CC1 [cis-(Z)-Flupenthixol dihydrochloride] | 12.9 µM | < 9.85 µM | 34.6 µM | 42.6 µM |
| O=c1c(O)c(-c2ccc(O)c(O)c2)oc2cc(O)cc(O)c12 [Quercetin dihydrate] | 18.4 µM | 10.4 µM | 56.9 µM | 55.7 µM |
| C=C(CC)C(=O)c1ccc(OCC(=O)O)c(Cl)c1Cl [EDECRIN] | < 9.85 µM | < 9.85 µM | 34.1 µM | 36.7 µM |
| C=C[C@](C)(O)CC[C@@H]1[C@@]2(C)CCCC(C)(C)[C@@H]2CC[C@@]1(C)O [SCLAREOL] | < 9.85 µM | < 9.85 µM | 31.4 µM | 28.9 µM |
| CN(C)c1ccc(O)c2c1C[C@H]1C[C@H]3[C@H](N(C)C)C(O)=C(C(N)=O)C(=O)[C@@]3(O)C(O)=C1C2=O [Minocycline hydrochloride] | < 9.85 µM | < 9.85 µM | < 9.85 µM | < 9.85 µM |
| CC(=O)NC[C@H]1CN(c2ccc(N3CCOCC3)c(F)c2)C(=O)O1 [Linezolid] | < 9.85 µM | < 9.85 µM | < 9.85 µM | < 9.85 µM |
| O=C(C=Cc1ccc(O)cc1)c1ccccc1O [2',4-DIHYDROXYCHALCONE] | 26.7 µM | 23.8 µM | 40.6 µM | 58 µM |
| O=c1cc(-c2ccc(O)c(O)c2)oc2cc(O)cc(O)c12 [Luteolin] | 27.6 µM | 20 µM | 57 µM | 56.6 µM |
| O=C(O)Cc1cc(I)c(Oc2ccc(O)c(I)c2)c(I)c1 [TRIAC] | 11.1 µM | < 9.85 µM | 12.5 µM | 23 µM |
| N=C(N)c1ccc(OCCCCCOc2ccc(C(=N)N)cc2)cc1 [Pentamidine HCl] | 23.5 µM | 16.8 µM | 37.3 µM | 46.4 µM |
| NC1CCN(c2c(F)cc3c(=O)c(C(=O)O)cn(C4CC4)c3c2Cl)C1 (stereo unspecified) [CLINAFOXACIN HYDROCHLORIDE] | < 9.85 µM | < 9.85 µM | < 9.85 µM | < 9.85 µM |

Reference: the supplement of paper PMC7695840
